Test: Heating of the separated supernatant in a thermostatic bath: separation into amine phase and aqueous phase
Format: physicochemical
Excerpt: The element 15 that separates the supernatant phase F into the aqueous phase H and the organic phase J and recovers the tertiary amine recovers the tertiary amine included in the supernatant phase F. As the element 15 that separates the supernatant phase F into the aqueous phase H and the organic phase J and recovers the tertiary amine, the mechanism of heating the supernatant phase F is preferable. For example, the supernatant phase F is stored in a second container, not shown, and the supernatant phase F is heated in the second container. As the temperature of the supernatant phase F is increased, the compatibility of the tertiary amine compounds of the embodiment with water changes, and supernatant phase F separates into the organic phase and the aqueous phase. The supernatant phase F separates into the aqueous phase H and the organic phase J at a higher temperature than the first mixture D which separates into the phases. It is preferable that the supernatant phase F is heated to a temperature higher than the temperature of the first mixture (the temperature at which the first mixture D is phase-separated (the temperature at which the supernatant phase F and the concentrated phase G are separated separately)). It is preferable that the supernatant phase F is heated to a temperature 5[° C.] or higher than the temperature of the first mixture D (the temperature at which the first mixture D is phase-separated (the temperature at which the supernatant phase F and the concentrated phase G are separated separately)). It is preferable that the supernatant phase F is heated to a temperature 10[° C.] or higher than the temperature of the first mixture D (the temperature at which the first mixture D is phase-separated (the temperature at which the supernatant phase F and the concentrated phase G are separated separately)). It is preferable that the supernatant phase F is heated to a temperature 20[° C.] or higher than the temperature of the first mixture D (the temperature at which the first mixture D is phase-separated (the temperature at which the supernatant phase F and the concentrated phase G are separated separately)). It is preferable that the supernatant phase F is heated to a temperature 20 [° C.] or higher than the temperature of the first mixture D. It is preferable that the supernatant phase F is heated to a temperature 30 [° C.] or higher than the temperature of the first mixture D (the temperature at which the first mixture D is phase-separated (the temperature at which the supernatant phase F and the concentrated phase G are separated separately)). The supernatant phase F is preferably heated to 35[° C.] or more and less than 90[° C.]. From the viewpoint of reducing energy consumption, it is more preferably that the supernatant phase F is heated to 35[° C.] or more and 75[° C.] or less. The supernatant phase F is preferably phase-separated at 35 [° C.] or more and less than 90[° C.]. From the viewpoint of reducing energy consumption, the supernatant phase F is more preferably phase-separated at 35[° C.] or more and less than 90[° C.]. It is preferable to use waste heat generated at a plant or the like to heat the supernatant phase F.
When the separated supernatant solution is heated in a thermostatic bath at 70[° C.], it is separated into an amine phase and an aqueous phase. When the amine phase is separated and used for the same test, the salt removal rate of 97.5 [%] is obtained, and the concentration of the lower phase being separated of 21.2 [wt %] is obtained, which is the similar results as in the first test.

[1] = supernatant of the S/F 4.0 test
[2] = supernatant of the S/F 6.0 test
[3] = supernatant of the S/F 7.0 test
[4] = supernatant of the S/F 10.0 test

SMILES | Separating Temperature Water/Amine [1] | Separating Temperature Water/Amine [2] | Separating Temperature Water/Amine [3] | Separating Temperature Water/Amine [4]
C1CCN(CCCN2CCCC2)C1 [chemical formula (1-2)] | 70 °C | 70 °C | 60 °C | 70 °C
CCOC(=O)N1CCN(CCCN2CCN(C(=O)OCC)CC2)CC1 [chemical formula (2-1)] | 70 °C | 70 °C | 50 °C | 70 °C
